# Experimental data as given in US20260069584A1, “METHODS OF TREATING CHRONIC MYELOID LEUKEMIA USING THE TYROSINE KINASE INHIBITOR VODOBATINIB” (Sun Pharma Advanced Research Company Ltd., priority 2022, published 2026).
# Assay: Part B: safety, treatment-emergent adverse events, DLT and MTD
# Format: in vivo
# Text: For the purpose of the present invention, the adverse events were graded as per the National Cancer Institute's, Common Terminology Criteria for Adverse Events (NCI-CTCAE) Version 4.03 and Version 5.0 (https://evs.nci.nih.gov/ftp1/CTCAE/About.html). It is a descriptive terminology which can be utilized for Adverse Event (AE) reporting.
# AEs were graded as per NCI-CTCAE Version 5.0. In the present study, along with others most common AEs for which patients were monitored were thrombocytopenia, neutropenia and anemia, any AE reported by the patient after the completion of AE collection period and considered related to the study drug was reported.
# Dose Limiting Toxicity (DLT) is defined as the occurrence of any of the following unless clearly and incontrovertibly related to the underlying disease. The hematological DLTs were defined as per the Phase of CML: • a) Grade 3 or higher, or other non-hematological toxicity, including nausea, vomiting and diarrhea, and refractory to standard antiemetic therapy except alopecia and nail disorders; • b) Missed ≥25% of doses over 28 days due to toxicity in Cycle 1; and • c) Any grade of toxicity requiring dose reduction or discontinuation of IMP within the 28-days DLT assessment period (Cycle 1).
# Safety Parameters: Parts B and C: Descriptive summaries were provided for the safety variables collected. Continuous variables were summarized using mean, standard deviation, minimum, median, and maximum. Categorical variables were summarized using frequency counts and percentages. For time-to-event variables, other percentiles were presented. In addition, summaries of AEs by intensity, seriousness, frequency, and relationship to IMP are presented. Adverse events (AE) s were coded using the Medical Dictionary for Regulatory Activities (MedDRA) and summarized by System Organ Class (SOC) and Preferred Term (PT).
# In this study, the dose-escalation cohort started with an accelerated titration study design (ATD) and shifted to a 3±3 design when subjects in the preceding ATD cohort experienced either grade 2 or higher adverse events (AEs) or dose-limiting toxicity (DLT) during Cycle 1 that was not clearly and incontrovertibly related to the underlying disease or concomitant medications. The DLT period consisted of 28 days (Cycle 1). Subjects experiencing DLTs were managed with dose delays and/or discontinuation and continued in the study until disease progression. Decisions to advance to a succeeding dose level occurred after the evaluation of safety and tolerability data for a given dose level.
# For the cohorts, where the 3±3 design applies, 3 subjects were enrolled initially. If 2 of these subjects experienced a Grade 2 or more toxicity (that was not clearly and incontrovertibly related to the underlying disease or concomitant medications), subsequent cohorts were escalated according to smaller increments. Further, if there were no DLTs in the first 3 subjects, dose escalation to the next higher dose level was allowed to proceed. If 1 of the 3 subjects experienced a DLT, that dose level was expanded to 6 subjects (3 additional subjects were enrolled). If 2 subjects at a given dose level experienced a DLT, the MTD was considered to have been exceeded. The next lower dose level was expanded to 6 subjects, or if 6 subjects had already been enrolled and no more than 1 of the 6 subjects experienced a DLT, then this lower dose level was considered the MTD. Additional subjects were enrolled in dose escalation cohorts for further assessment of safety and efficacy of the compound of Formula 1 at doses that were tolerated (i.e., doses that have <2 DLTs in 6 enrolled subjects or <1 DLT in 3 enrolled subjects). Thus 204 mg was arrived at as MTD. A subject experiencing a DLT was allowed to continue therapy with a reduced dose. Subjects who experienced a DLT and recovered were treated at the next lower dose level until disease progression or other events requiring further dose reduction existed. […]
structure (smiles),measurement,setting,value
"Cc1ccc(C(=O)NNC(=O)c2c(C)cccc2Cl)cc1C#Cc1cnc2ccccc2c1 [compound of Formula I, N′-(2-chloro-6-methylbenzoyl)-4-methyl-3-[2-(3-quinolyl)ethynyl]-benzohydrazide]",grade 3 or 4 AEs,"6 patients, prior 2 TKI treatments",33.4%
same,AEs leading to permanent discontinuation,6 pts,11.3%
same,discontinued from the study due to AE,"10 subjects, dose expansion at 174 mg",1 subject
same,grade 3 or 4 AEs,19 patients treated with ponatinib,86.3%
same,grade 3 or 4 AEs,"28 patients, 3 or more TKI treatments",80%
same,discontinued due to disease progression,"41 subjects, dose escalation",4 subjects
same,discontinued due to AEs,"41 subjects, dose escalation (1 each at 48, 126, 174 and 204 mg)",4 subjects
same,discontinued from the study,"41 subjects, dose escalation cohorts",11 subjects
same,"All TEAEs, Any grade",Overall (N = 53),51 No of pts
same,"All TEAEs, Grade 3/4",Overall (N = 53),34 No of pts
same,"Amylase increased, Any grade",Overall (N = 53),5 No of pts
same,"Amylase increased, Grade 3/4",Overall (N = 53),4 No of pts
same,"Anemia, Any grade",Overall (N = 53),11 No of pts
same,"Anemia, Grade 3/4",Overall (N = 53),7 No of pts
same,"Back pain, Any grade",Overall (N = 53),7 No of pts
same,"Back pain, Grade 3/4",Overall (N = 53),0 No of pts
same,"Constipation, Any grade",Overall (N = 53),8 No of pts
same,"Constipation, Grade 3/4",Overall (N = 53),0 No of pts
same,"Cough, Any grade",Overall (N = 53),11 No of pts
same,"Cough, Grade 3/4",Overall (N = 53),0 No of pts
same,"Death, Grade 3/4",Overall (N = 53),0 No of pts
same,"Decreased appetite, Any grade",Overall (N = 53),6 No of pts
same,"Decreased appetite, Grade 3/4",Overall (N = 53),0 No of pts
same,"Diarrhoea, Any grade",Overall (N = 53),12 No of pts
same,"Diarrhoea, Grade 3/4",Overall (N = 53),1 No of pts
same,"Fatigue, Any grade",Overall (N = 53),7 No of pts
same,"Fatigue, Grade 3/4",Overall (N = 53),0 No of pts
same,"Headache, Any grade",Overall (N = 53),8 No of pts
same,"Headache, Grade 3/4",Overall (N = 53),0 No of pts
same,"Lipase increased, Any grade",Overall (N = 53),5 No of pts
same,"Lipase increased, Grade 3/4",Overall (N = 53),4 No of pts
same,"Myalgia, Any grade",Overall (N = 53),7 No of pts
same,"Myalgia, Grade 3/4",Overall (N = 53),0 No of pts
same,"Nasopharyngitis, Any grade",Overall (N = 53),6 No of pts
same,"Nasopharyngitis, Grade 3/4",Overall (N = 53),0 No of pts
same,"Nausea, Any grade",Overall (N = 53),8 No of pts
same,"Nausea, Grade 3/4",Overall (N = 53),0 No of pts
same,"Neutropenia, Any grade",Overall (N = 53),8 No of pts
same,"Neutropenia, Grade 3/4",Overall (N = 53),7 No of pts
same,"Pruritis, Any grade",Overall (N = 53),6 No of pts
same,"Pruritis, Grade 3/4",Overall (N = 53),0 No of pts
same,"Pyrexia, Any grade",Overall (N = 53),8 No of pts
same,"Pyrexia, Grade 3/4",Overall (N = 53),1 No of pts
same,"Rhinitis, Any grade",Overall (N = 53),6 No of pts
same,"Rhinitis, Grade 3/4",Overall (N = 53),0 No of pts
same,"SAEs, Any grade",Overall (N = 53),20 No of pts
same,"SAEs, Grade 3/4",Overall (N = 53),12 No of pts
same,"TEAEs Leading to drug withdrawal, Any grade",Overall (N = 53),6 No of pts
same,"TEAEs Leading to drug withdrawal, Grade 3/4",Overall (N = 53),2 No of pts
same,"TEAEs Related to comp of Formula I, Any grade",Overall (N = 53),35 No of pts
same,"TEAEs Related to comp of Formula I, Grade 3/4",Overall (N = 53),14 No of pts
same,"TEAEs: Dose discontinued and restarted, Any grade",Overall (N = 53),20 No of pts
same,"TEAEs: Dose discontinued and restarted, Grade 3/4",Overall (N = 53),12 No of pts
same,"TEAEs: Dose modifications, Any grade",Overall (N = 53),11 No of pts
same,"TEAEs: Dose modifications, Grade 3/4",Overall (N = 53),6 No of pts
same,"Thrombocytopenia, Any grade",Overall (N = 53),22 No of pts
same,"Thrombocytopenia, Grade 3/4",Overall (N = 53),10 No of pts
same,"Vomiting, Any grade",Overall (N = 53),7 No of pts
same,"Vomiting, Grade 3/4",Overall (N = 53),0 No of pts
same,"All TEAEs, Any grade",Prior Ponatinib (N = 22),22 No of pts
same,"All TEAEs, Grade 3/4",Prior Ponatinib (N = 22),19 No of pts
same,"Amylase increased, Any grade",Prior Ponatinib (N = 22),3 No of pts
same,"Amylase increased, Grade 3/4",Prior Ponatinib (N = 22),2 No of pts
same,"Anemia, Any grade",Prior Ponatinib (N = 22),6 No of pts
same,"Anemia, Grade 3/4",Prior Ponatinib (N = 22),4 No of pts
same,"Back pain, Any grade",Prior Ponatinib (N = 22),3 No of pts
same,"Back pain, Grade 3/4",Prior Ponatinib (N = 22),0 No of pts
same,"Constipation, Any grade",Prior Ponatinib (N = 22),3 No of pts
same,"Constipation, Grade 3/4",Prior Ponatinib (N = 22),0 No of pts
same,"Cough, Any grade",Prior Ponatinib (N = 22),5 No of pts
same,"Cough, Grade 3/4",Prior Ponatinib (N = 22),0 No of pts
same,"Death, Any grade",Prior Ponatinib (N = 22),2 No of pts
same,"Death, Grade 3/4",Prior Ponatinib (N = 22),0 No of pts
same,"Decreased appetite, Any grade",Prior Ponatinib (N = 22),3 No of pts
same,"Decreased appetite, Grade 3/4",Prior Ponatinib (N = 22),0 No of pts
same,"Diarrhoea, Any grade",Prior Ponatinib (N = 22),7 No of pts
same,"Diarrhoea, Grade 3/4",Prior Ponatinib (N = 22),1 No of pts
same,"Fatigue, Any grade",Prior Ponatinib (N = 22),4 No of pts
same,"Fatigue, Grade 3/4",Prior Ponatinib (N = 22),0 No of pts
same,"Headache, Any grade",Prior Ponatinib (N = 22),4 No of pts
same,"Headache, Grade 3/4",Prior Ponatinib (N = 22),0 No of pts
same,"Lipase increased, Any grade",Prior Ponatinib (N = 22),2 No of pts
same,"Lipase increased, Grade 3/4",Prior Ponatinib (N = 22),2 No of pts
same,"Myalgia, Any grade",Prior Ponatinib (N = 22),2 No of pts
same,"Myalgia, Grade 3/4",Prior Ponatinib (N = 22),0 No of pts
same,"Nasopharyngitis, Any grade",Prior Ponatinib (N = 22),2 No of pts
same,"Nasopharyngitis, Grade 3/4",Prior Ponatinib (N = 22),0 No of pts
same,"Nausea, Any grade",Prior Ponatinib (N = 22),7 No of pts
same,"Nausea, Grade 3/4",Prior Ponatinib (N = 22),0 No of pts
same,"Neutropenia, Any grade",Prior Ponatinib (N = 22),3 No of pts
same,"Neutropenia, Grade 3/4",Prior Ponatinib (N = 22),2 No of pts
same,"Pruritis, Any grade",Prior Ponatinib (N = 22),4 No of pts
same,"Pruritis, Grade 3/4",Prior Ponatinib (N = 22),0 No of pts
same,"Pyrexia, Any grade",Prior Ponatinib (N = 22),4 No of pts
same,"Pyrexia, Grade 3/4",Prior Ponatinib (N = 22),1 No of pts
same,"Rhinitis, Any grade",Prior Ponatinib (N = 22),4 No of pts
same,"Rhinitis, Grade 3/4",Prior Ponatinib (N = 22),0 No of pts
same,"SAEs, Any grade",Prior Ponatinib (N = 22),10 No of pts
same,"SAEs, Grade 3/4",Prior Ponatinib (N = 22),7 No of pts
same,"TEAEs Leading to drug withdrawal, Any grade",Prior Ponatinib (N = 22),2 No of pts
same,"TEAEs Leading to drug withdrawal, Grade 3/4",Prior Ponatinib (N = 22),2 No of pts
same,"TEAEs Related to comp of Formula I, Any grade",Prior Ponatinib (N = 22),15 No of pts
same,"TEAEs Related to comp of Formula I, Grade 3/4",Prior Ponatinib (N = 22),7 No of pts
same,"TEAEs: Dose discontinued and restarted, Any grade",Prior Ponatinib (N = 22),12 No of pts
same,"TEAEs: Dose discontinued and restarted, Grade 3/4",Prior Ponatinib (N = 22),7 No of pts
same,"TEAEs: Dose modifications, Any grade",Prior Ponatinib (N = 22),8 No of pts
same,"TEAEs: Dose modifications, Grade 3/4",Prior Ponatinib (N = 22),4 No of pts
same,"Thrombocytopenia, Any grade",Prior Ponatinib (N = 22),7 No of pts
same,"Thrombocytopenia, Grade 3/4",Prior Ponatinib (N = 22),3 No of pts
same,"Vomiting, Any grade",Prior Ponatinib (N = 22),4 No of pts
same,"Vomiting, Grade 3/4",Prior Ponatinib (N = 22),0 No of pts
same,Cough,any grade,20.8%
same,anemia,any grade,20.8%
same,diarrhea,any grade,22%
same,thrombocytopenia,any grade,41.5%
